From the supplement of paper PMC10307832

Assays:
Assay in all cases: relative viability (nuclei count vs DMSO), 5 days (fraction); higher = more cells survive
Tozasertib + Trametinib = compound: Cc1cc(Nc2cc(N3CCN(C)CC3)nc(Sc3ccc(NC(=O)C4CC4)cc3)n2)n[nH]1 [Tozasertib] + CC(=O)Nc1cccc(-n2c(=O)n(C3CC3)c(=O)c3c(Nc4ccc(I)cc4F)n(C)c(=O)c(C)c32)c1 [Trametinib] (partner 0.02 µM)
In short: (§1)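 Relative viability divides the nuclei count in treated wells by that in vehicle wells. Lung cancer cell lines were seeded in 1536-well plates, dosed by pin tool the next day, and fixed and stained after 5 days in one step with final 0.05% Triton X-100, 1% formaldehyde and 1 ug/ml Hoechst. Dosing was a single drug or a fixed anchor-drug dose plus five library-drug doses (not always all listed) in √10 steps, and values are medians of duplicate plates imaged at 4×.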

Tozasertib + Dasatinib = compound: Cc1cc(Nc2cc(N3CCN(C)CC3)nc(Sc3ccc(NC(=O)C4CC4)cc3)n2)n[nH]1 [Tozasertib] + Cc1nc(Nc2ncc(C(=O)Nc3c(C)cccc3Cl)s2)cc(N2CCN(CCO)CC2)n1 [Dasatinib] (partner 0.075 µM)
In short: as §1

Tozasertib + Phenformin = compound: Cc1cc(Nc2cc(N3CCN(C)CC3)nc(Sc3ccc(NC(=O)C4CC4)cc3)n2)n[nH]1 [Tozasertib] + N=C(N)NC(=N)NCCc1ccccc1 [Phenformin] (partner 250 µM)
In short: as §1

Tozasertib + Palbociclib = compound: Cc1cc(Nc2cc(N3CCN(C)CC3)nc(Sc3ccc(NC(=O)C4CC4)cc3)n2)n[nH]1 [Tozasertib] + CC(=O)c1c(C)c2cnc(Nc3ccc(N4CCNCC4)cn3)nc2n(C2CCCC2)c1=O [Palbociclib] (partner 0.5 µM)
In short: as §1

Tozasertib + Pemetrexed = compound: Cc1cc(Nc2cc(N3CCN(C)CC3)nc(Sc3ccc(NC(=O)C4CC4)cc3)n2)n[nH]1 [Tozasertib] + Nc1nc2[nH]cc(CCc3ccc(C(=O)N[C@@H](CCC(=O)O)C(=O)O)cc3)c2c(=O)[nH]1 [Pemetrexed] (partner 0.2 µM)
In short: as §1

Cell Line | relative viability (Tozasertib + Trametinib; first compound 0.004 µM) | relative viability (Tozasertib + Trametinib; first compound 0.01265 µM) | relative viability (Tozasertib + Trametinib; first compound 0.04 µM) | relative viability (Tozasertib + Trametinib; first compound 0.1265 µM) | relative viability (Tozasertib + Dasatinib; first compound 0.004 µM) | relative viability (Tozasertib + Dasatinib; first compound 0.01265 µM) | relative viability (Tozasertib + Dasatinib; first compound 0.04 µM) | relative viability (Tozasertib + Dasatinib; first compound 0.1265 µM) | relative viability (Tozasertib + Phenformin; first compound 0.004 µM) | relative viability (Tozasertib + Phenformin; first compound 0.01265 µM) | relative viability (Tozasertib + Phenformin; first compound 0.04 µM) | relative viability (Tozasertib + Phenformin; first compound 0.1265 µM) | relative viability (Tozasertib + Palbociclib; first compound 0.004 µM) | relative viability (Tozasertib + Palbociclib; first compound 0.01265 µM) | relative viability (Tozasertib + Palbociclib; first compound 0.04 µM) | relative viability (Tozasertib + Palbociclib; first compound 0.1265 µM) | relative viability (Tozasertib + Pemetrexed; first compound 0.004 µM) | relative viability (Tozasertib + Pemetrexed; first compound 0.01265 µM) | relative viability (Tozasertib + Pemetrexed; first compound 0.04 µM) | relative viability (Tozasertib + Pemetrexed; first compound 0.1265 µM)
COR-L 105 | 0.436 | 0.393 | 0.461 | 0.329 | 0.352 | 0.291 | 0.32 | 0.214 | 0.501 | 0.46 | 0.483 | 0.275 | 0.353 | 0.393 | 0.419 | 0.356 | 1.05 | 1.14 | 1.23 | 1.15
NCI-H2023 | 0.557 | 0.455 | 0.535 | 0.425 | 0.562 | 0.506 | 0.572 | 0.318 | 0.393 | 0.393 | 0.407 | 0.258 | 0.409 | 0.384 | 0.417 | 0.243 | 0.239 | 0.241 | 0.246 | 0.213
EPLC-272H | 0.263 | 0.308 | 0.32 | 0.259 | 0.313 | 0.399 | 0.39 | 0.291 | 0.307 | 0.337 | 0.256 | 0.275 | 0.367 | 0.313 | 0.318 | 0.356 | 0.341 | 0.381 | 0.258 | 0.206
BEN | 1.03 | 1.02 |  | 0.961 | 0.372 | 0.354 | 0.363 | 0.287 | 0.277 | 0.253 | 0.296 | 0.252 | 0.455 | 0.475 | 0.481 | 0.432 | 0.847 | 0.72 | 0.923 | 0.487
NCI-H1395 | 1.1 | 0.972 | 1.07 | 0.638 | 0.423 | 0.343 | 0.438 | 0.357 | 0.46 | 0.429 | 0.47 | 0.359 | 0.613 | 0.612 | 0.632 | 0.56 | 0.979 | 0.797 | 0.864 | 0.584
LCLC-103H | 0.659 | 0.71 | 0.675 |  | 0.539 | 0.452 | 0.456 | 0.478 | 0.373 | 0.343 | 0.323 | 0.359 | 0.481 | 0.45 | 0.502 | 0.52 | 0.482 | 0.46 | 0.444 | 0.45
A-427 | 0.783 | 0.68 | 0.818 | 0.509 | 0.774 | 0.692 | 0.76 | 0.426 | 0.332 | 0.31 | 0.328 | 0.169 | 0.55 | 0.487 | 0.517 | 0.423 | 1 |  | 0.973 | 0.75
ChaGo-K-1 | 0.879 | 0.838 | 0.895 | 0.736 | 0.624 | 0.616 | 0.648 | 0.398 | 0.528 | 0.456 | 0.562 | 0.289 | 0.902 | 0.881 | 0.949 | 0.477 | 0.255 | 0.268 | 0.254 | 0.264
NCI-H1650 | 0.482 | 0.58 | 0.624 | 0.175 | 0.311 | 0.377 |  | 0.167 | 0.47 | 0.38 | 0.595 | 0.199 | 0.328 | 0.287 | 0.365 | 0.207 | 0.334 | 0.374 | 0.381 | 0.385
SK-LU-1 | 0.447 | 0.505 | 0.567 | 0.461 | 0.183 | 0.191 | 0.188 | 0.146 | 0.55 | 0.569 | 0.578 | 0.324 | 0.428 | 0.414 | 0.476 | 0.469 | 1.05 | 0.961 | 1.09 | 0.964
NCI-H522 | 0.825 |  | 0.671 | 0.711 | 0.836 | 1.12 | 1.01 | 0.725 | 0.687 | 0.62 | 0.676 | 0.593 | 1.03 | 1.02 | 1.06 | 0.749 | 0.931 | 1.16 | 0.927 | 0.837
LU99A | 0.545 | 0.504 | 0.494 | 0.373 | 0.751 | 0.513 | 0.547 | 0.373 | 0.903 | 0.819 | 0.773 | 0.646 | 0.423 | 0.386 | 0.369 | 0.324 | 0.165 | 0.155 | 0.207 | 0.193
NCI-H2170 | 0.896 | 0.904 | 0.94 | 0.818 | 0.565 | 0.501 | 0.546 | 0.445 | 0.33 | 0.364 | 0.436 | 0.366 | 0.402 | 0.382 | 0.391 | 0.337 | 0.289 | 0.241 | 0.293 | 0.271
HCC-44 |  | 1.03 | 1.22 | 1 |  |  |  |  | 0.184 | 0.251 | 0.184 | 0.104 | 1.03 | 0.954 | 1.02 | 0.874 | 0.677 | 0.552 | 0.604 | 0.599
UMC-11 | 0.794 | 0.699 | 0.653 | 0.259 | 0.495 | 0.545 | 0.521 | 0.161 | 0.372 | 0.308 | 0.3 | 0.171 | 0.345 | 0.317 | 0.356 | 0.248 | 0.852 | 0.809 | 0.78 | 0.26
201T | 0.707 | 0.705 | 0.759 | 0.71 | 0.593 | 0.503 | 0.714 | 0.555 | 0.496 | 0.432 | 0.448 | 0.415 | 0.355 | 0.362 | 0.364 | 0.224 | 0.33 | 0.283 | 0.377 | 0.362
NCI-H2009 | 0.288 | 0.288 | 0.341 | 0.216 | 0.307 | 0.292 | 0.266 | 0.213 | 0.5 | 0.455 | 0.476 | 0.477 | 0.254 | 0.201 | 0.247 | 0.164 | 1 | 1.03 | 0.985 | 0.986
NCI-H1734 |  | 0.793 | 0.678 | 0.403 | 0.422 | 0.444 | 0.452 | 0.314 | 0.41 | 0.432 | 0.374 | 0.241 | 0.361 | 0.308 | 0.364 | 0.306 | 0.424 | 0.351 | 0.453 | 0.436
HCC-15 | 0.386 | 0.359 | 0.405 | 0.375 | 0.61 | 0.532 | 0.624 | 0.319 | 0.504 | 0.477 | 0.5 | 0.341 | 0.752 | 0.675 | 0.73 | 0.621 | 0.232 | 0.234 | 0.228 | 0.228
NCI-H1437 | 0.562 | 0.422 | 0.54 | 0.294 | 0.453 | 0.254 | 0.372 | 0.434 | 0.312 | 0.301 | 0.297 | 0.2 | 0.327 | 0.267 | 0.316 | 0.19 | 0.302 | 0.292 | 0.328 | 0.296
NCI-H1563 |  |  |  |  | 0.567 | 0.481 | 0.541 | 0.453 | 0.704 | 0.668 | 0.721 | 0.573 |  |  |  |  | 0.816 | 0.845 | 0.823 | 0.615
NCI-H2085 | 0.681 | 0.6 | 0.504 | 0.476 | 0.235 | 0.231 | 0.244 | 0.228 | 0.759 | 0.744 | 0.731 |  | 0.462 | 0.455 | 0.464 | 0.475 | 0.935 | 0.815 | 1.03 | 0.802
NCI-H2126 | 0.562 | 0.535 | 0.632 | 0.552 | 0.587 | 0.674 | 0.674 | 0.485 | 0.604 | 0.562 | 0.467 | 0.51 | 0.354 | 0.405 | 0.372 | 0.339 | 0.688 | 0.736 |  | 0.729
SW 1573 | 0.521 | 0.652 | 0.569 | 0.179 | 0.505 | 0.43 | 0.361 | 0.0939 | 0.35 | 0.393 | 0.361 | 0.284 | 0.455 | 0.355 | 0.284 | 0.151 | 0.793 | 0.796 | 0.848 | 0.212
EKVX | 0.369 | 0.301 | 0.339 | 0.422 | 0.494 | 0.606 | 0.471 |  | 0.256 | 0.212 | 0.23 | 0.222 |  | 0.367 | 0.418 | 0.412 | 0.371 | 0.351 | 0.382 | 0.351
ABC-1 |  |  |  |  | 0.494 | 0.535 | 0.577 | 0.258 | 0.218 | 0.202 | 0.261 | 0.172 | 0.722 | 0.769 | 0.44 | 0.533 |  |  |  | 
A549 |  |  |  |  |  |  |  |  | 0.117 | 0.161 | 0.169 | 0.0581 |  |  |  |  |  |  |  | 
NCI-H596 | 0.992 | 0.877 | 0.826 | 0.622 | 0.555 | 0.589 | 0.645 | 0.53 |  | 0.808 | 0.968 | 0.834 |  |  |  |  | 0.549 | 0.477 |  | 0.473
NCI-H727 | 0.358 | 0.395 | 0.38 | 0.37 | 0.386 | 0.38 | 0.378 | 0.286 | 0.588 | 0.466 | 0.537 | 0.375 | 0.554 | 0.573 | 0.629 | 0.563 |  |  |  | 
